Drawing on ChEMBL document CHEMBL5465560, “Selectivity Literature for EUbOPEN Chemogenomic Library” (2024), this text covers % of control and % of inhibition for 6 molecules.

The structures appear in SMILES notation.

The target of experiment [1] is T1, Ephrin type-B receptor 2 (Homo sapiens) (UniProt P29323).
T1 sequence (whole entry): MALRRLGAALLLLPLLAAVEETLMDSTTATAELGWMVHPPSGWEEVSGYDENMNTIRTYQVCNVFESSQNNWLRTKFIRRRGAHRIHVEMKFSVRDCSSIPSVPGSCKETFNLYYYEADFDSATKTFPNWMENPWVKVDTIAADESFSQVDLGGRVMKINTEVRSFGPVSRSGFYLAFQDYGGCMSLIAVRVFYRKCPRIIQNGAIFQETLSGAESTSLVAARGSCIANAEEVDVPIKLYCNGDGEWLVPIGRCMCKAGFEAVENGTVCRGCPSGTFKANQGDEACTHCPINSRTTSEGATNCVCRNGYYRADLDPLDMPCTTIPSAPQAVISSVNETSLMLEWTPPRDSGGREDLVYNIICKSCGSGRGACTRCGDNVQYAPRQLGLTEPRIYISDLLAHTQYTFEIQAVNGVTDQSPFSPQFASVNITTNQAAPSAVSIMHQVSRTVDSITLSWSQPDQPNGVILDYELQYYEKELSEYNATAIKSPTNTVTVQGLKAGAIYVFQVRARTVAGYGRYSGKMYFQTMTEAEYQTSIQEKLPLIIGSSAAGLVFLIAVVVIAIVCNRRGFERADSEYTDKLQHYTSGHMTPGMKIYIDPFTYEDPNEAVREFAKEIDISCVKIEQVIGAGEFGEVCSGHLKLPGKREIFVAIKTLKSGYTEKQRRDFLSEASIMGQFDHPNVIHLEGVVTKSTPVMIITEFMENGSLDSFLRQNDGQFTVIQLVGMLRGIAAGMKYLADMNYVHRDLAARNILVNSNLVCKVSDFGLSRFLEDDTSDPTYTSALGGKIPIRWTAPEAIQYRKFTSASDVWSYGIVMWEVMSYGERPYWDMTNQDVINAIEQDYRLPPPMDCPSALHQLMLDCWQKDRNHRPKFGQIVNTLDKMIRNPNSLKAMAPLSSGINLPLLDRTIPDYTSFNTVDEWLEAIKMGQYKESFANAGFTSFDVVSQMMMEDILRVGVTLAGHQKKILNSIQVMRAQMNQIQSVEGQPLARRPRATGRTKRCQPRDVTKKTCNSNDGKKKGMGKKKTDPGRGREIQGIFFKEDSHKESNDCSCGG
Briefly: Selectivity interaction (KinomeScan (DiscoverX)) EUB0000595a EPHB2. As to conditions: at 10 µM.

Experiment [2] addresses Serine/threonine-protein kinase 38-like (Homo sapiens) (UniProt Q9Y2H1). Briefly: Selectivity interaction (KinomeScan (DiscoverX)) EUB0000595a STK38L. As to conditions: at 10 µM.
Experiment [3] has as its target T2, PAN2-PAN3 deadenylation complex subunit PAN3 (Homo sapiens) (UniProt Q58A45).
T2 sequence (whole entry): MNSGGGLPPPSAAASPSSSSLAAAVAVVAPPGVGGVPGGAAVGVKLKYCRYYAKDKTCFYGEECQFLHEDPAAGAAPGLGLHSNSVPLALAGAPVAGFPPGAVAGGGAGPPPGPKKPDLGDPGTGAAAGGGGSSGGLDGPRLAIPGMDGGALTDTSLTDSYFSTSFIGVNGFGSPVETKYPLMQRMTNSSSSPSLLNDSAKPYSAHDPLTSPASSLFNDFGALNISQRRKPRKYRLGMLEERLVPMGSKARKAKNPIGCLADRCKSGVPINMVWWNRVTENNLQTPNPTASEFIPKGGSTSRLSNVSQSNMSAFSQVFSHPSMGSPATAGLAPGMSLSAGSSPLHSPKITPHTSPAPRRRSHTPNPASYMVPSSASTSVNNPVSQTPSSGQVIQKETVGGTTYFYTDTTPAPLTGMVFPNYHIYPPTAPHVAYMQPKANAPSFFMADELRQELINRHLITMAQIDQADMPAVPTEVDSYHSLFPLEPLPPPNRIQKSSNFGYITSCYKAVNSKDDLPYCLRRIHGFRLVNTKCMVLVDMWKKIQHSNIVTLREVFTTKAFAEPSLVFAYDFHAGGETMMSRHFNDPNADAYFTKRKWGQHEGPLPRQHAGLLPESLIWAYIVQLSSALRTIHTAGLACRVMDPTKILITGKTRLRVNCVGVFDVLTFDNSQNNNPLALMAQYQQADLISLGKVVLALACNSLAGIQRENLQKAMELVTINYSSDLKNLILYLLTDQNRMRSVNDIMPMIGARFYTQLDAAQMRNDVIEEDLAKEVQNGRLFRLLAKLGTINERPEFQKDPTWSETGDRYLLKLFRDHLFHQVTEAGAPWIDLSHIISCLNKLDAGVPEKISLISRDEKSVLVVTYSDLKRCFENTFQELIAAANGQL
Briefly: Selectivity interaction (ActivX KiNativ screen (ex vivo kinase selectivity in human PBMCs)) EUB0001619a PAN3. It counts as cell-based. As to conditions: PBMC, at 1 µM.

Experiment [4] addresses T3, Phosphatidylinositol 5-phosphate 4-kinase type-2 gamma (Homo sapiens) (UniProt Q8TBX8).
T3 sequence (whole entry): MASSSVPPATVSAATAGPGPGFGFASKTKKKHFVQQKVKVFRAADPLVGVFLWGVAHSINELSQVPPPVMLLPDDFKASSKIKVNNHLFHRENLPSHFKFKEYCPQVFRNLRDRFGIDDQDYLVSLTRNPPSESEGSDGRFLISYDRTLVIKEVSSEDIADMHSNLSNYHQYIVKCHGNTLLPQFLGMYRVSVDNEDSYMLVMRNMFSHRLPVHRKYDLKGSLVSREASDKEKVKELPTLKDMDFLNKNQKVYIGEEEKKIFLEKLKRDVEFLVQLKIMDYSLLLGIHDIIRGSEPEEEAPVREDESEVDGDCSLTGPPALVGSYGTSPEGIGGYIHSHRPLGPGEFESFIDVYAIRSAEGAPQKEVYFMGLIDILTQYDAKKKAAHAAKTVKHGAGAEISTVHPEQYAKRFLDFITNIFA
Briefly: Selectivity interaction (KinomeScan (DiscoverX)) EUB0001619a PIP4K2C. To be noted: at 1 µM.

Experiment [5] addresses Tyrosine-protein kinase ABL1 (Homo sapiens, UniProt P00519). Briefly: Selectivity interaction (ActivX KiNativ screen (kinase selectivity in THP-1 cell lysates)) EUB0000639a ABL1. To be noted: lysate. It is filed as subcellular.
The target of experiment [6] is Protein kinase C alpha type (Homo sapiens, UniProt P17252). Briefly: Selectivity interaction (Kinase panel (Invitrogen)) EUB0000639a PRKCA. As to conditions: at 200 nM.
Experiment [7] concerns the target Citron Rho-interacting kinase (Homo sapiens) (UniProt O14578). Briefly: Selectivity interaction (Ambit KINOMEscan and KiNATiv profiling in Jurkat cells) EUB0000090b CIT. It counts as cell-based. As to conditions: at 1 µM.
Experiment [8] addresses Serine/threonine-protein kinase PLK3 (Homo sapiens, UniProt Q9H4B4). Briefly: Selectivity interaction (Upstate Kinase Profiler service (Millipore)) EUB0000056c PLK3. As to conditions: at 1 µM.
In experiment [9] the test system is eIF-2-alpha kinase GCN2 (Homo sapiens), Q9P2K8 [S808G]. Briefly: Selectivity interaction (KinomeScan (DiscoverX)) EUB0000655a EIF2AK4. As to conditions: at 10 µM.
eIF-2-alpha kinase GCN2 (Homo sapiens), Q9P2K8 [S808G], sequence (Q9P2K8 whole entry S808G): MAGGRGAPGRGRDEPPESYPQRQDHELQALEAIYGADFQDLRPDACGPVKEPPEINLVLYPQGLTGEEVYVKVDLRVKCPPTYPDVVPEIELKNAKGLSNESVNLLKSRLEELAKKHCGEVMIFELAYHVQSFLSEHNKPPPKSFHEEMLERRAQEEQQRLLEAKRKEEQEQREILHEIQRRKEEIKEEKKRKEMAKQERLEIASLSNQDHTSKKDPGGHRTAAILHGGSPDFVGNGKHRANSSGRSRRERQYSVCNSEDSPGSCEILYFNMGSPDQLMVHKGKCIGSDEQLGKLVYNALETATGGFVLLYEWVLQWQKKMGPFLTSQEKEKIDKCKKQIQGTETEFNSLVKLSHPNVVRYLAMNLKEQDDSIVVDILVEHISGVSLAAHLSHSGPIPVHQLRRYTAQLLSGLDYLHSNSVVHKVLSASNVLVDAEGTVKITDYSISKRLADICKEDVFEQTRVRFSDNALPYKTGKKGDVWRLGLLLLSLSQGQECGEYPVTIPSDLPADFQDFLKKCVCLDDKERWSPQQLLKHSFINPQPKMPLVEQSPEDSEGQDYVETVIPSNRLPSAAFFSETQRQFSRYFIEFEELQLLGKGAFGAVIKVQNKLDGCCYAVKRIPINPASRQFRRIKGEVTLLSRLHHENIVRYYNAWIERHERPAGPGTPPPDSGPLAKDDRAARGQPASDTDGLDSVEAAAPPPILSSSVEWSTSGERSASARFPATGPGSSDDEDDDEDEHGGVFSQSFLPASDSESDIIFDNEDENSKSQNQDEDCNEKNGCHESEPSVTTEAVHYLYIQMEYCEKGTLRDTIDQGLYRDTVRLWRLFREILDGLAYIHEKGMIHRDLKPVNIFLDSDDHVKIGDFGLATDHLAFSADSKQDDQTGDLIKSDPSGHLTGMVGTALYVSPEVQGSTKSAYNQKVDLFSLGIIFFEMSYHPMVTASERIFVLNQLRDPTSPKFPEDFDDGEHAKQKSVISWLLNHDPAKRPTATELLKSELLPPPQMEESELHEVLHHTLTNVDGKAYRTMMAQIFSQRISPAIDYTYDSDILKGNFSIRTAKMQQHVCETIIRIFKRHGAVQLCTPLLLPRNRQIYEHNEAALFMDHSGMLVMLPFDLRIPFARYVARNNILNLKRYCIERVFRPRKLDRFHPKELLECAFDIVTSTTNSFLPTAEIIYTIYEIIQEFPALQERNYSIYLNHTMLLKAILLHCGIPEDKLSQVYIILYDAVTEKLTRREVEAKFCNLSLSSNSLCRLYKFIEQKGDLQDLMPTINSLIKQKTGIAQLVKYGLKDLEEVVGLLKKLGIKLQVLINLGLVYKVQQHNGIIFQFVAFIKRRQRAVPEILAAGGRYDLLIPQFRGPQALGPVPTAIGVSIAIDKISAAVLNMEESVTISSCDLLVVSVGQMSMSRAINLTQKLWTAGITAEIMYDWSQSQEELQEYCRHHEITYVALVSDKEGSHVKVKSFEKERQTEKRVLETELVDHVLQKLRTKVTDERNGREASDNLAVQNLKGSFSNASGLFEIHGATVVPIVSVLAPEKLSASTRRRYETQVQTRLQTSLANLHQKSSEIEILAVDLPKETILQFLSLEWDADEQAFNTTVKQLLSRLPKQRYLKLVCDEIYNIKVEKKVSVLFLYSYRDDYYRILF

Tyrosine-protein kinase ABL1, sequence (P00519 whole entry): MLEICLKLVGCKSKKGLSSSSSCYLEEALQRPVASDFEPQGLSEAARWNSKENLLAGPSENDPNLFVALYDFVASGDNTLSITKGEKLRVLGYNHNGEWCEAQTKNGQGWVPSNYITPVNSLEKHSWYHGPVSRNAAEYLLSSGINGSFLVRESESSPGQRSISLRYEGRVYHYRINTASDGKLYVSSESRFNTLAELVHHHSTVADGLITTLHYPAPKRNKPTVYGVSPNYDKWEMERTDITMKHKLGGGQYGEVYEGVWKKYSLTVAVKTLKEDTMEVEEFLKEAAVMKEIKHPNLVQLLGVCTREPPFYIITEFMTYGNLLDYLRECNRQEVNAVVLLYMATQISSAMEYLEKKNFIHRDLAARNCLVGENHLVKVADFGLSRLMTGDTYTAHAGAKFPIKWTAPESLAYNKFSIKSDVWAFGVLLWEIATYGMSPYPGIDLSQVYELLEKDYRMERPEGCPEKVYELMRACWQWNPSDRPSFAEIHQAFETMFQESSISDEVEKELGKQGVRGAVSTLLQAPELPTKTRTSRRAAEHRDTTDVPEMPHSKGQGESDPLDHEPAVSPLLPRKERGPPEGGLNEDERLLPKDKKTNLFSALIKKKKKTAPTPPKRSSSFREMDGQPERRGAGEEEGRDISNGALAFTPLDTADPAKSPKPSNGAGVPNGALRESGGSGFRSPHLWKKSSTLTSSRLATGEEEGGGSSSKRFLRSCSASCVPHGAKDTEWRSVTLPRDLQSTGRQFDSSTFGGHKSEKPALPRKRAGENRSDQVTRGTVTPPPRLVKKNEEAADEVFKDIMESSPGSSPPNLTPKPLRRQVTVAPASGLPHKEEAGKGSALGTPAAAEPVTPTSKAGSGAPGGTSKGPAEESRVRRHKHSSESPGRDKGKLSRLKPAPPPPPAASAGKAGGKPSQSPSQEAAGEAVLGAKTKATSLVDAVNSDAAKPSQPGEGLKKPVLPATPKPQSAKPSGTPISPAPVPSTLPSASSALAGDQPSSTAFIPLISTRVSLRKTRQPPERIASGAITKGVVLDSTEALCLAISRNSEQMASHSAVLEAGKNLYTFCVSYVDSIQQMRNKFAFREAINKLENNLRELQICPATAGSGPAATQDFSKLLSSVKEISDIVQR
Serine/threonine-protein kinase PLK3, sequence (Q9H4B4 whole entry, looked up): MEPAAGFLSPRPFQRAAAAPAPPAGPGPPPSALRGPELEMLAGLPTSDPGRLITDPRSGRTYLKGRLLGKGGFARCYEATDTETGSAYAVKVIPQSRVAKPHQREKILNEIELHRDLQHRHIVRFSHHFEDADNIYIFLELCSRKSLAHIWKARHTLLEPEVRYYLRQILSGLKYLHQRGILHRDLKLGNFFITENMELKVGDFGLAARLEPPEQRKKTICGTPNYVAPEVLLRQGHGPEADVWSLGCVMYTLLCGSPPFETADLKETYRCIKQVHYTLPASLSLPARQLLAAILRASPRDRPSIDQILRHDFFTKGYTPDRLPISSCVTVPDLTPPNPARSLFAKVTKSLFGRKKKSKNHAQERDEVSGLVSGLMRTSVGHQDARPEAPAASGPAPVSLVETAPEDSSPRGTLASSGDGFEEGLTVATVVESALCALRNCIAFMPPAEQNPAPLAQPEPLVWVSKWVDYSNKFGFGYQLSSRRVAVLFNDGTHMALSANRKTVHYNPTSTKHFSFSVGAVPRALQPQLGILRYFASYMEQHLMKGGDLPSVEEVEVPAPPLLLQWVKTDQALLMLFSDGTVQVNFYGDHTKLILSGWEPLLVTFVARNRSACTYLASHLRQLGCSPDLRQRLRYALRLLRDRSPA
Serine/threonine-protein kinase 38-like (Homo sapiens), sequence (Q9Y2H1 2-464 limits assumed): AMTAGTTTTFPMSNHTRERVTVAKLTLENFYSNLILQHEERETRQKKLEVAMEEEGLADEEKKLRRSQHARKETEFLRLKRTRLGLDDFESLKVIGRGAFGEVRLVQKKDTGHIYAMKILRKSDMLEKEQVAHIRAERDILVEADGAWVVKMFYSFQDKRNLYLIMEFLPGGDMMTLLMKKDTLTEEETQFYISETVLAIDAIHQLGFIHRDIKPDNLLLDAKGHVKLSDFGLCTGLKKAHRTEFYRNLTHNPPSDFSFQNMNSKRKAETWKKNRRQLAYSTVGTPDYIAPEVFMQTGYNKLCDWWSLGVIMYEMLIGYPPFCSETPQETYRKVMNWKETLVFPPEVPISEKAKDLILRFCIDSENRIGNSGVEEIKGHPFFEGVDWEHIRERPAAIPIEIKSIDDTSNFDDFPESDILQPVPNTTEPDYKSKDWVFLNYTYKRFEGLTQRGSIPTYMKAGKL

Regarding `COCC(=O)NC/C=C/c1ccc2ncnc(Nc3ccc(Oc4ccc(C)nc4)c(C)c3)c2c1` [CP-724714], the % of control in experiment [1] and in [2] was 100% in each case.

On to `N#Cc1cccc(-c2c[nH]c3ncnc(N4CCOCC4)c23)c1`, for which the % of inhibition in experiment [3] amounted to 15%. Further, in [4], the % of control was determined as 21%.

For the molecule `CC[C@@H]1[C@H](F)C(=O)N[C@@H]1COc1nccc2cc(C(N)=O)c(OC)cc12` [ZIMLOVISERTIB], the % of inhibition in experiment [5] (at 0.01 µM) was 12.8%; in experiment [5] (at 0.04 µM), -16%; in [5] (at 0.2 µM), -25.4%; in experiment [5] (at 1 µM) it was -5.3%; in experiment [5] (at 5 µM), -19.6%; in [6], 6.64%.

In [7], `CN(C)C/C=C/C(=O)Nc1ccc(C(=O)N2CCCC(Nc3ncc(Cl)c(-c4c[nH]c5ccccc45)n3)C2)cc1` (stereo not drawn) showed a % of control of 83%.

For `Cc1ccc(-c2ccc3c(ccc4sc5c(c43)NC[C@@H](C)NC5=O)n2)cn1`, in [8], the % of inhibition is -2%.

With `CN(C)CCOc1ccc(-c2nc(-c3ccncc3)c(-c3ccc4c(c3)CC/C4=N\O)[nH]2)cc1`, the % of control in experiment [9] is 97%.
